The values that follow come from patent US20210363495A1, “CULTURE MEDIA FOR PLURIPOTENT STEM CELLS” (Yeda Research and Development Co. Ltd., priority 2019, published 2021).

The test system of assay [1] is WIBR3 hESC line carrying ΔPE-OCT4-GFP reporter. The experiment in a line: ΔPE-OCT4-GFP knock in naïve pluripotency reporter quantification. The assay is classed as cell-based, human. The text has this: (§1) FIGS. 2A-I. Optimizations for enhanced human naive pluripotency conditions. A. W3G4 METTL3 TET-OFF cells were maintained in the presence of DOX for up to 4 passages in different conditions and stained for OCT4 to quantify percentage of cells that retained their pluripotency. […] B. Quantification of ΔPE-OCT4-GFP knock in naïve pluripotency reporter, in variety of primed (red) and naïve conditions (blue). Mean fluorescence intensity values (MFI) are indicated. […] C. Quantification of ΔPE-OCT4-GFP knock in naïve pluripotency reporter, in optimized naïve conditions and various concentrations of GSK3 inhibitor that leads to WNT activation (CHIR99021 is used as GSK3 inhibitor and is abbreviated as CHIR). […] D. Phase images showing how supplementation of 0.2% Geltrex (Life Technologies) in the growth media and SRCi additively enhance domed like morphology of human naïve PSCs in ENHSM conditions optimized herein. E. RT-PCR analysis for naïve pluripotency markers in ENHSM conditions with and without P38i/JNKi (BIRB0796). Values were normalized to ACTIN and values in Primed conditions were set as 1. […] F. W3G4 METTL3 TET-OFF cells were maintained in the presence of DOX for up to 4 passages in the optimized ENHSM conditions but without TNKi, in order to see if other molecules can substitute for TNKi after all optimizations were applies (e.g. adding of Geltrex, concentration optimization). […]

The subject of assay [2] is Tet-OFF-METTL3 hESCs (WIBR3, clone W3G4). The assay can be described thus: Pluripotency (OCT4+) maintenance of Tet-OFF-METTL3 hESCs in the presence of DOX. The assay is classed as cell-based, human. The following applies: individual small molecule supplemented to NHSM, Geltrex coated plates, no MEFs. The text has this:
FIGS. 1A-I Defining enhanced human naive conditions compatible with expanding METTL3 depleted PSCs. A. Strategy for generating human ESCs with TET-OFF regulated expression of METTL3 m^6A methyltransferase enzyme. B. Western blot analysis for correctly engineered human ESCs with TET-OFF METTL3 regulation, before and after DOX treatment. C. Representative images for human METTL3 TET-OFF engineered cells in different conditions with or without DOX addition. […] D. Scheme depicting strategy for conducting a screen for identifying a small molecule or cytokine additive to previously described human naïve NHSM conditions that allow maintain pluripotency in TET-OFF METTL3 human stem cells after adding DOX. E. W3G4 cells were maintained in the presence of DOX for up to 4 passages in different conditions and stained for OCT4 to quantify percentage of cells that retained their pluripotency. […] F. OCT4+ pluripotency maintenance in NHSM conditions supplemented with various TNK inhibitors and DOX to repress METTL3 expression. G. Quantification of ΔPE-OCT4-GFP knock in naïve pluripotency reporter, in variety of primed (red) and naïve conditions (blue). Mean fluorescence intensity values (MFI) are indicated. H. Quantification of ΔPE-OCT4-GFP knock in naïve pluripotency reporter in variety of conditions with various concentrations of ACTIVIN A recombinant cytokine. […] I. Representative phase contrast images in human ESCs expanded in NHSM+TNKi conditions showing their maintenance of pluripotent domed-like morphology even in the presence of FGFRi.
In order to identify culture conditions which capture human naïve PSC, the present inventors looked for agents which are capable of maintaining stem cells in a pluripotent state in the absence of defined epigenetic repressors. Human knock-in WIBR3 hESC lines with conditional inducible ablation expression of METTL3 were engineered (FIG. 1A). This was carried out by introducing an exogenous METTL3 transgene under the regulation of Tet-OFF promoter (Liao et al., 2015), followed by CRISPR/Cas9 mediated ablation of both endogenous human METTL3 alleles. Two resultant clones were validated for METTL3 expression only from the exogenous allele, which can be shut off by addition of DOX to the media (called Tet-OFF-METTL3 lines) (FIG. 1B).
The latter further support rewiring toward naïve pluripotency in NHSM conditions. […] Candidate molecules were tested for the ability to enrich NHSM conditions that allow Tet-OFF-METTL3 to be maintained on Geltrex coated plates in the presence of DOX.
NHSM conditions were supplemented with individual small molecules (FIG. 1D). […] IWR1 is a WNT inhibitor (WNTi) small molecule that stabilizes AXIN protein in the cytoplasm by inhibiting Tankyrase enzyme (abbreviated herein as TNK inhibitor—TNKi).

Assay [3] deals with human naïve PSCs. The experiment in a line: RT-PCR analysis for naïve pluripotency markers. The following applies: ENHSM with and without P38i/JNKi, normalized to ACTIN, primed set as 1. The assay is classed as cell-based.
Description: as §1

For assay [4], the system named is human naïve PSCs. The assay can be described thus: Pluripotency maintenance of naïve cells in ENHSM supplemented with CHIR. Format: cell-based. The following applies: ENHSM plus CHIR; TGFB inhibition, depleted DNA and RNA methylation or no L-Glutamine. The text has this:
The present inventors next aimed to define the signaling pathway downstream of Tankyrase inhibition facilitating human naïve PSCs stabilization. Bcat-KO ESCs had higher levels of Oct4-GFP in ENHSM condition, and upon removal of XAV939 GFP level was not decreased in KO, but in WT ESCs. A similar trend was shown in RT-PCR analysis. Supplementing naïve cells with WNT stimulator compromised delta-PE-OCT4-GFP levels, compromised their domed shape like morphology and their transcriptional profile. Using a tamoxifen induced Beta-Catenin-ERT transgene, the present inventors noted that delta-PE-OCT4-GFP signal and domed morphology were compromised upon tamoxifen stimulation. […] Similarly, while KO of TCF3 boosts mouse naïve pluripotency and alleviates the need for WNT stimulation, TCF3 KO ESCs still required WNTi and/or SRCi to maintain their naïve identity in humans. […] Collectively, these findings clearly establish WNT as a priming agent for human, but not mouse, naïve pluripotency and establish that KO of beta-catenin can substitute for Tankyrase inhibition.

Assay [5] deals with PKCα (Homo sapiens, UniProt P17252). The following applies: cited from earlier work.
Assay [6] addresses T1, PKCμ (Homo sapiens, UniProt Q15139).
T1 sequence (Q15139 1-912): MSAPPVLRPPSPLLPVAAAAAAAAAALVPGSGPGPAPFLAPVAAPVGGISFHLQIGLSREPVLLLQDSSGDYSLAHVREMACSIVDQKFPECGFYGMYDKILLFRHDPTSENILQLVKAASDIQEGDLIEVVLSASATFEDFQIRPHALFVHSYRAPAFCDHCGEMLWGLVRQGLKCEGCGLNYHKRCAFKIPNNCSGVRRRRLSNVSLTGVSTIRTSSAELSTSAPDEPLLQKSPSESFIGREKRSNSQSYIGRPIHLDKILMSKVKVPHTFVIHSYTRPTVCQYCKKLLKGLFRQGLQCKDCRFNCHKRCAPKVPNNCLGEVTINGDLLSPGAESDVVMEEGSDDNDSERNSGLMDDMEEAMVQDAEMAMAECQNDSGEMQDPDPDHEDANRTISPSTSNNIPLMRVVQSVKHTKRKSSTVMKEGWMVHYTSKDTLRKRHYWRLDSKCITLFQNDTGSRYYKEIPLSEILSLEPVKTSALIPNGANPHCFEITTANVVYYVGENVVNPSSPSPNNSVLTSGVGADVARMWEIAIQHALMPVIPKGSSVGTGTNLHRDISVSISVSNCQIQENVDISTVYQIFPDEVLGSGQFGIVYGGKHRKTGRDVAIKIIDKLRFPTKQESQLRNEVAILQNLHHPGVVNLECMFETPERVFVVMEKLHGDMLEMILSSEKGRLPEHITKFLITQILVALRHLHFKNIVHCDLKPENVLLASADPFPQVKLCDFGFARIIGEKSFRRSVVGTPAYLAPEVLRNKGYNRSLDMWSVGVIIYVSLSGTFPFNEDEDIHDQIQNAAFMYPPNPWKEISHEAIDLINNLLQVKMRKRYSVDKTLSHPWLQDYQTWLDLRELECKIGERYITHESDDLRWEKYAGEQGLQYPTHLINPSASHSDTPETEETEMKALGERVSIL
The following applies: cited from earlier work.

Assay [7] relates to PKCγ. The following applies: fourth value of the list; read-out: IC50 PKCγ (second mention); cited from earlier work.
In assay [8] the target is PKCβ (Homo sapiens, UniProt P05771). The following applies: cited from earlier work.
For assay [9], the target named is PKCγ (Homo sapiens, UniProt P05129). The following applies: third value of the list; cited from earlier work.
Assay [10] has as its target T2, PKCζ (Homo sapiens, UniProt Q05513).
T2 sequence (Q05513 1-592): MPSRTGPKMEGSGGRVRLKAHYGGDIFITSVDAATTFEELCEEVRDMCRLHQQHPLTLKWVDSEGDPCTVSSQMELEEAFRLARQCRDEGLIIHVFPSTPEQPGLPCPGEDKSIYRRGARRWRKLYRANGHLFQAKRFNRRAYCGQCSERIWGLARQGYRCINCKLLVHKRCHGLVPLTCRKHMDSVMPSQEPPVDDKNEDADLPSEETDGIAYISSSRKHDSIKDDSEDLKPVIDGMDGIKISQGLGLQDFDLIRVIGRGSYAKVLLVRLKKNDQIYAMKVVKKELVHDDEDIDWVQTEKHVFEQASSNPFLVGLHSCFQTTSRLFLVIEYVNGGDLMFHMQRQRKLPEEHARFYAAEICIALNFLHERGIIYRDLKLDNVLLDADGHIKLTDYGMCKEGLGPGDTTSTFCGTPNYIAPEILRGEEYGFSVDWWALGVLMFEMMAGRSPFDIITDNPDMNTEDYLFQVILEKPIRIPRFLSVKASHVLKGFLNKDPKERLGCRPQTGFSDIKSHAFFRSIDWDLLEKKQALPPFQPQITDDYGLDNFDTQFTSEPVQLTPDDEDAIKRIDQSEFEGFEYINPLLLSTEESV
The following applies: cited from earlier work.

For assay [11], the system named is primed human PSCs. The experiment in a line: Single cell cloning efficiency. Format: cell-based. The following applies: primed cells, ROCK inhibitor used.

Molecules are shown by their SMILES.

Chain of PKCβ (P05771 whole entry, species assumed): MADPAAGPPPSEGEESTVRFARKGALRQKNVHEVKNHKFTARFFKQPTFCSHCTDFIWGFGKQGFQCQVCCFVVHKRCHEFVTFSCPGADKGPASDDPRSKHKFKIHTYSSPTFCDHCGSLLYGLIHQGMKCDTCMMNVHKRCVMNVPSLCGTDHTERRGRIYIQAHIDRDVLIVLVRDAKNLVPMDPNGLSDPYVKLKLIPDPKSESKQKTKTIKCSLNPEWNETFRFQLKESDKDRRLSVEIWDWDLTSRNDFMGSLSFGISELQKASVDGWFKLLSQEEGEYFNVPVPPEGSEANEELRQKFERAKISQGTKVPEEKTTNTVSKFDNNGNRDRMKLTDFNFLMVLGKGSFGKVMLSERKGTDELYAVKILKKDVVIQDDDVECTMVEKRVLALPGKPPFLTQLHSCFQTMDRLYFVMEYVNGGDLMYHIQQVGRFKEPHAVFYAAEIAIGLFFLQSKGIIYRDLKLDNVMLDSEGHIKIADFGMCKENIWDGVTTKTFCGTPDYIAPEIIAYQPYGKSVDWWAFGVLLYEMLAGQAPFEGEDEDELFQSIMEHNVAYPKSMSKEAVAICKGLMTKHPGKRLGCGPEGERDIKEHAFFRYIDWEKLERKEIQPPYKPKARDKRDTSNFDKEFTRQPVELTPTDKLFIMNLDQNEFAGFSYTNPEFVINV

Regarding `O=C(Nc1cccc2cccnc12)c1ccc(N2C(=O)[C@@H]3[C@H](C2=O)[C@@H]2C=C[C@H]3C2)cc1` [IWR1], the ΔPE-OCT4-GFP expression entry in assay [1] (TNKi supplemented to NHSM conditions) is reported as “boosts expression of GFP”. In assay [2], the “expansion of Tet-OFF-METTL3 on DOX” value was “enabled the expansion of Tet-OFF-METTL3 on DOX with great homogeneity”.
For `Cc1ccc(-n2nc(C(C)(C)C)cc2NC(=O)Nc2ccc(OCCN3CCOCC3)c3ccccc23)cc1` [BIRB0796], the “naïve pluripotency marker expression” value in assay [3] was “boosts expression of naïve pluripotency markers”.
For `Cc1c[nH]c(-c2cnc(NCCNc3ccc(C#N)cn3)nc2-c2ccc(Cl)cc2Cl)n1` [CHIR99021], the “ability to maintain pluripotency” value in assay [4] is reported as “compromised their ability to maintain pluripotency”. Besides, the ΔPE-OCT4-GFP intensity result in assay [1] (optimized naïve conditions, various concentrations of GSK3 inhibitor) is listed as “negatively influences human naive pluripotency”.
As a reminder, the IC50 is the concentration needed to halve the response being measured. In the case of `COc1ccc2c(c1)c(C1=C(c3c[nH]c4ccccc34)C(=O)NC1=O)cn2CCCN(C)C` [Go6983], the concentration for half-maximal inhibition (IC50) is 7 nM in [5]; 20000 nM in assay [6]; 10 nM in assay [7]; 7 nM in assay [8]; 6 nM in assay [9]; 60 nM in assay [10].
In the case of `C[C@@H](N)[C@H]1CC[C@H](C(=O)Nc2ccncc2)CC1` [Condition Y27632], in assay [11], the single cell cloning is listed as 10-20%.
